Columns and labels:
[1] = tested on: ovariectomized Wistar female rats; assay: Antiuterotrophic/antisulfatase activity: inhibition of E1S stimulated uterus weight; format: in vivo, rat
Description: A short model, derived from Purohit's method, was developed for the evaluation in vivo of nonestrogenic steroid sulfatase inhibitors.
Wistar female rats were ovariectomized and left to rest for 4 weeks. Prior to treatment, the absence of cyclicity was checked by vaginal smears.
Animals were supplemented with estrone sulfate (E1S) at 50 μg/kg/day s.c., alone or combined with oral administration of potential sulfatase inhibitors, at 1 mg/kg/day for 4 days. The uteri were removed, freed of adjacent tissue and wet weighed.
The results are expressed as % of inhibition of the E1S induced stimulation.
The activity of Ex 55 on E1S stimulated uterus weight was evaluated in relation to the standard inhibitor 6,6,7 COUMATE from 0.03 mg/kg/day to 1 mg/kg/day p.o.
(§1) In this study, a last administration was performed 24 hours before the necropsy for E1S and E2 serum levels assays. The uteri were removed, freed of adjacent tissue, wet weighed and immediately deep frozen until the determination of sulfatase activity.

[2] = target: T1, estrone sulfatase (Rattus norvegicus, UniProt P15589); assay: Estrone sulfatase activity in the uterus of treated rats; format: in vivo
T1 construct: uteri were thawed, weighed and homogenized; from tissue; host or cells: uterus of animals dosed orally (ex vivo homogenate supernatant)
T1 sequence (P15589 20-577): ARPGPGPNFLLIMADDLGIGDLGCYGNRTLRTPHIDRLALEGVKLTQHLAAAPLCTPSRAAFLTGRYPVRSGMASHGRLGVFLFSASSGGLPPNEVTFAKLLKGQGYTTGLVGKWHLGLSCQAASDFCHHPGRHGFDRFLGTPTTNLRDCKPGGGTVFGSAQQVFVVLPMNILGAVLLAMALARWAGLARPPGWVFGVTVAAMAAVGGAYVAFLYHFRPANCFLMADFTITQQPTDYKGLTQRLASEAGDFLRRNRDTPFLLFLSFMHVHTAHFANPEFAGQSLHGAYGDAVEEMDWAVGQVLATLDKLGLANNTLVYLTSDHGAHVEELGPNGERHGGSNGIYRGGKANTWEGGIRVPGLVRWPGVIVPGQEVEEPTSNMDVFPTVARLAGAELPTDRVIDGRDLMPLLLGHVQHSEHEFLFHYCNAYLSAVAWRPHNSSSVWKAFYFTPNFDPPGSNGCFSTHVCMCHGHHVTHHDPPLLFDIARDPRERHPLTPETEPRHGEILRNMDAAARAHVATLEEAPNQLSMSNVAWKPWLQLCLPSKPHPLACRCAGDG
Description: as §1
Estrone sulfatase activity was measured according to the method described by Purohit et al., with slight modifications. Briefly, uteri were thawed, weighed and homogenized. Aliquots of the supernatant were treated with dextran-coated charcoal and assayed for sulfatase. E1S activity was assessed after 30 min of incubation with 5 nM of ^3H-E1S and 20 μM of unlabelled E1S as substrate. Radioactivity was measured by LSC.
Estrone sulfatase activity was expressed as pmol/h/mg protein and reported as percentage of inhibition versus E1S.

[3] = Serum estrogen levels (E1S and E2) in treated rats; format: in vivo, rat; conditions: 24 h after last administration
Description: as §1
E1S and E2 levels were determined according to the supplier's standard method (DSL, Webster, Tex., USA).

[4] = tested on: MCF-7 cells; assay: Hormono-dependent induced MCF-7 xenografts: volume and weight; format: in vivo, mice; conditions: oral 0.1 mg/kg/day for 6 weeks
Description: (§2) MCF-7 cells, derived from human breast adenocarcinoma, were injected subcutaneously in ovariectomized athymic nude mice supplemented with estrone sulfate (pellets 0.5 mg/90 day release). Xenograft volumes were determined once weekly. When tumor volumes reached a significant increase, 6,6,7 COUMATE and Ex 55 were orally administered at 0.1 mg/kg/day for 6 weeks.
(§3) Xenografts were measured, removed, weighed, and deep frozen until the determination of steroid sulfatase activity.

[5] = target: T2, steroid sulfatase (Homo sapiens, UniProt P08842); assay: Xenograft steroid sulfatase activity; format: in vivo, mouse; conditions: oral 0.1 mg/kg/day for 6 weeks
T2 construct: from tissue; host or cells: MCF-7 xenograft tumour removed from athymic nude mice
T2 sequence (P08842 22-583): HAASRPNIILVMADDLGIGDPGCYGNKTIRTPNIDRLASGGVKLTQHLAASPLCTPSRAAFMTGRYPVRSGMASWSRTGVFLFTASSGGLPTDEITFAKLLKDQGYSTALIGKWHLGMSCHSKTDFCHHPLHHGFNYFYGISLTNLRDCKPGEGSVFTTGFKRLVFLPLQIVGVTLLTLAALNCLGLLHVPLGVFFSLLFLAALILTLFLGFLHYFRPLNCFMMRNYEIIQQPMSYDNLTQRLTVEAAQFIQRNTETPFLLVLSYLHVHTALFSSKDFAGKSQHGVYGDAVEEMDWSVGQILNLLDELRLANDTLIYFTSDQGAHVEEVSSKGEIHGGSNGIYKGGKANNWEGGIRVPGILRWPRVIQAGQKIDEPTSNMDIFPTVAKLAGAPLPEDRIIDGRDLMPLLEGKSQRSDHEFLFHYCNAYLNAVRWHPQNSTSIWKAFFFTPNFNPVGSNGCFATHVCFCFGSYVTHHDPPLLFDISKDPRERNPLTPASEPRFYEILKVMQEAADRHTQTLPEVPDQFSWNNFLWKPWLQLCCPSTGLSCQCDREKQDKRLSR
Description: as §2, §3

[6] = tested on: prepubescent female rats; assay: Residual estrogenic activity in vivo (uterotrophic assay); conditions: prepubescent female rats, oral, 1 mg/rat/day for 3 days
Description: These compounds were checked for residual estrogenic activity in vivo in the classical uterotrophic assay after 3-day administration by oral route in prepubescent female rats.
Prepubescent female rats were orally treated at 1 mg/rat/day for 3 days. On the day following the last treatment, uteri were removed and wet weight were recorded.
The results are expressed as % of stimulation of uterus weight in comparison with controls.

[7] = MCF-7 xenografts, nude mice with E1S pellet

For `NS(=O)(=O)Oc1ccc2c3c(c(=O)oc2c1)CCCCC3` [6,6,7-COUMATE, reference compound], the “Inhibition of E1S stimulated uterus weight” value ([1]; 0.03 mg/kg/day p.o.) was 0%, the “Inhibition of E1S stimulated uterus weight” value ([1]; 0.1 mg/kg/day p.o.) was 13% and the “Inhibition of E1S stimulated uterus weight” value ([1]; 0.3 mg/kg/day p.o.) was 52%. The “Inhibition of E1S stimulated uterus weight” value ([1]; 1 mg/kg/day p.o.) was 84%, the “% inhibition of the E1S induced stimulation (uterus weight)” value ([1]; ovariectomized rats, E1S 50 μg/kg/day s.c., compound oral 1 mg/kg/day for 4 days) was 86% and the “Estrone sulfatase activity in the uterus, percentage of inhibition versus E1S” value ([2]; 0.03 mg/kg/day p.o.) was 36%. For the same compound, the “Estrone sulfatase activity in the uterus, percentage of inhibition versus E1S” value ([2]; 0.1 mg/kg/day p.o.) was 78%, the “Estrone sulfatase activity in the uterus, percentage of inhibition versus E1S” value ([2]; 0.3 mg/kg/day p.o.) was 96% and the “Estrone sulfatase activity in the uterus, percentage of inhibition versus E1S” value ([2]; 1 mg/kg/day p.o.) was 97%. For the same compound, the “E1S levels (serum)” value ([3]; 0.03 mg/kg/day p.o.) was 24 ± 3.1 ng/mL, the “E2 levels (serum)” value ([3]; 0.03 mg/kg/day p.o.) was 33 ± 5.8 pg/mL and the “E1S levels (serum)” value ([3]; 0.1 mg/kg/day p.o.) was 26 ± 2.6 ng/mL. For the same compound, the “E2 levels (serum)” value ([3]; 0.1 mg/kg/day p.o.) was 28 ± 2.5 pg/mL, the “E1S levels (serum)” value ([3]; 0.3 mg/kg/day p.o.) was 59 ± 6.4 ng/mL and the “E2 levels (serum)” value ([3]; 0.3 mg/kg/day p.o.) was 18 ± 1.1 pg/mL. For the same compound, the “E1S levels (serum)” value ([3]; 1 mg/kg/day p.o.) was 80 ± 5.7 ng/mL, the “E2 levels (serum)” value ([3]; 1 mg/kg/day p.o.) was 16 ± 1.5 pg/mL and the “Xenograft volume after 6 week treatment” value [4, 7] was 1854 ± 243 mm^3. The “Xenograft weight after 6 week treatment” value [4, 7] was 1467 ± 191 mg, the “inhibition of the E1S induced stimulation (xenograft volume)” value [4] was “did not inhibit” and the “inhibition of xenograft weight” value [4] was “did not inhibit”. For the same compound, the “Xenograft steroid sulfatase activity” value ([5]; MCF-7 xenografts) was 540 ± 54 pmol/h/mg protein, the inhibition at 0.1 mg/kg/day ([5]; read-out: inhibition of intratumoral steroid sulfatase activity) was 67% and the “% stimulation of uterus weight in comparison with controls” value [6] was 3%.
